One series deals with Staphylococcus aureus. The experiment in a line: MIC determination by broth dilution (CLSI). The conditions noted are these: ATCC29213.
Another series has as its system Bacillus subtilis. The experiment in a line: MIC determination by broth dilution (CLSI). The conditions noted are these: DSM3256.
For series [1], the system named is Mycobacterium tuberculosis H37Ra. The experiment in a line: MIC determination from adjusted liquid culture, serial dilution. It counts as cell-based. The following applies: ATCC 25177 / H37Ra, strain ATCC25177, Middlebrook 7H9 + 10 % ADC, read after 3-14 days. As for the experimental part:
An M. tuberculosis H37Ra (ATCC25177) liquid culture (5 mL, Middlebrook 7H9 broth base + 10 % ADC supplement) was inoculated from original stock (-80°C). After two to five days of shaking at 37°C, an OD600 (optical density at λ = 600 nm) of approximately 1 was observed. […] Plates were covered with plastic foil and a lid. MIC values were determined by visual inspection or by plate reader at 600 nm after 3-14 days (pre-tempered at 37°C with plastic foil, lid removed). Table 1: The MIC values in Table 1 are given in µg/mL and in nmol/mL.

Series [2] is described as follows: Determination of aqueous solubility (UHPLC, caffeine internal standard). In kind it is physicochemical. The conditions noted are these: for weight-% of isomer (transacylated regioisomer): five hours at room temperature, equal absorption of both regioisomers assumed; for solubility at 5 h: thermodynamic from solid. As for the experimental part: A standard stock solution of each analyte in MeOH at a concentration of 1.0 mg/mL was prepared. All analytes were completely soluble in MeOH. A standard stock solution of caffeine for use as internal standard (IS) in MeOH was prepared at a concentration of 1 mg/mL. These stock solutions were further diluted with MeOH to calibration standard samples at concentrations of 50, 100, 200, 300, 400, 500 µg/mL of analyte with each sample containing 50 µg/mL of caffeine as IS. These samples were analyzed by UHPLC [Kinetex® EVO C18; 1.7 µm; 100 Å, 50 mm x 2.1 mm; Phenomenex; solvent A: H2O + 0.1 % HCOOH, solvent B: MeCN + 0.1 % HCOOH; 0.4 mL/min; 1.0 µL injection volume, LC time program (min - % B): 0.50 min - 5 %, 3.50 min - 95 %, 3.55 min - 100 %; UV detection at λ = 270 nm]. The peak area of the analyte signal was divided by the peak area of the IS. This peak ratio was plotted against the analyte's concentration to obtain a linear equation.
For reproducibility reasons, water solubility of the fidaxomicin derivatives was quantified in a pH = 7 phosphate buffered aqueous solution (Acros, CAS 7558-79-4). A stock solution of caffeine in phosphate buffer at a concentration of 1.0 mg/mL was prepared and diluted to a concentration of 50 µg/mL. To 1.0 mL of this caffeine solution, the analyte was added as a solid until a saturated solution was obtained. This solution was stirred for five hours at room temperature. The mixture was filtered over a 0.22 µm syringe filter and the obtained solution was analyzed by UHPLC. The concentration was then calculated from the linear equation obtained from the calibration.
With most samples of fidaxomicin derivatives, two peaks for the analyte were detected, viz. one for the original substance and one for its regioisomer formed by transacylation of the isobutyric acid ester. In the following table, the total solubility of each analyte is given with the percentage of isomerization added in parentheses (weight-% of transacylated isomer), assuming that both regioisomers feature approximately the same absorption characteristics. Table 2: Aqueous solubility of fidaxomicin derivatives

[3] abbreviates: pH = 7 phosphate buffered aqueous solution.

In brackets after ≈: the same amount, converted by molar mass. Several values for one entry are separate records, joined by “and”; a condition that tells them apart may be missing. Identical values can stand only once. Like-named read-outs stand apart in the source and are kept apart here. Some results are limits rather than exact numbers.

Method for Bacillus subtilis: (§1) The strains of Bacillus subtilis and Staphylococcus aureus were grown overnight at 37 °C on MH II agar plates. (BD™ BBL™ Mueller Hinton II Agar, BD Diagnostics). MIC values were determined by broth dilution method according to the recommendations of the Clinical and Laboratory Standards Institute (CLSI; U.S.A.). The inoculum size was about 7.5 x 10^5 colony forming units/well. The compounds were diluted in H2O from 1.0 mg/mL stock solutions in methanol/H2O 1/1 in a 2-fold dilution series. The microtiter plates were incubated at 37 °C overnight.
Method for Staphylococcus aureus: as §1

Consider `CCOC(=O)COc1c(Cl)c(O)c(C(=O)O[C@H]2[C@H](O)[C@H](OC)[C@H](OC/C3=C\C=C\C[C@H](O)/C(C)=C/[C@H](CC)[C@@H](O[C@@H]4OC(C)(C)[C@@H](OC(=O)C(C)C)[C@H](O)[C@@H]4O)/C(C)=C/C(C)=C/C[C@@H]([C@@H](C)O)OC3=O)O[C@@H]2C)c(CC)c1Cl` [Compound 5a, Fidaxomicin Ethylacetate], for which the MIC is 16 µg/mL and 14 µM in the series on Staphylococcus aureus; 32 µg/mL and 28 µM in the series with Bacillus subtilis; 2 µg/mL to 8 µg/mL and 1.8 µM to 7 µM in series [1].
Regarding `CCOC(=O)COc1c(Cl)c(CC)c(C(=O)O[C@H]2[C@H](O)[C@H](OC)[C@H](OC/C3=C\C=C\C[C@H](O)/C(C)=C/[C@H](CC)[C@@H](O[C@@H]4OC(C)(C)[C@@H](OC(=O)C(C)C)[C@H](O)[C@@H]4O)/C(C)=C/C(C)=C/C[C@@H]([C@@H](C)O)OC3=O)O[C@@H]2C)c(OCC(=O)OCC)c1Cl` [Compound 5b, Fidaxomicin Bis(ethylacetate)], the MIC against Staphylococcus aureus is 32 µg/mL to 64 µg/mL and 26 µM to 52 µM; in the series with Bacillus subtilis it was 8 µg/mL to 16 µg/mL and 6.5 µM to 13 µM; in series [1], 1 µg/mL to 4 µg/mL and 0.8 µM to 3.3 µM.
Consider `C=CCOC(=O)N1CCN(C(=O)COc2c(Cl)c(O)c(C(=O)O[C@H]3[C@H](O)[C@H](OC)[C@H](OC/C4=C\C=C\C[C@H](O)/C(C)=C/[C@H](CC)[C@@H](O[C@@H]5OC(C)(C)[C@@H](OC(=O)C(C)C)[C@H](O)[C@@H]5O)/C(C)=C/C(C)=C/C[C@@H]([C@@H](C)O)OC4=O)O[C@@H]3C)c(CC)c2Cl)CC1` [Compound 7a, Fidaxomicin Piperazine with alloc Protecting Group], for which the minimum inhibitory concentration (MIC) with Staphylococcus aureus is 16 µg/mL to 32 µg/mL and 12.6 µM to 25.2 µM; with Bacillus subtilis, > 64 µg/mL and > 50.5 µM.
As for `CCc1c(Cl)c(OCC(=O)N2CCC(O)CC2)c(Cl)c(O)c1C(=O)O[C@H]1[C@H](O)[C@H](OC)[C@H](OC/C2=C\C=C\C[C@H](O)/C(C)=C/[C@H](CC)[C@@H](O[C@@H]3OC(C)(C)[C@@H](OC(=O)C(C)C)[C@H](O)[C@@H]3O)/C(C)=C/C(C)=C/C[C@@H]([C@@H](C)O)OC2=O)O[C@@H]1C` [Compound 10a], the “weight-% of isomer (transacylated regioisomer)” value in series [2] (setting [3]) turned out to be 7 weight-%. The solubility at 5 h in series [2] (phosphate buffer, aqueous buffer, pH = 7 phosphate buffered aqueous solution, stirred five hours at room temperature, 0.22 µm filter, read-out: Conc. (aqueous solubility, total of both regioisomers)) worked out at 180 µg/mL (≈ 150 µM).
As for `CCc1c(Cl)c(OCC(=O)N2CCN(c3cc4c(cc3F)c(=O)c(C(=O)O)cn4C3CC3)CC2)c(Cl)c(O)c1C(=O)O[C@H]1[C@H](O)[C@H](OC)[C@H](OC/C2=C\C=C\C[C@H](O)/C(C)=C/[C@H](CC)[C@@H](O[C@@H]3OC(C)(C)[C@@H](OC(=O)C(C)C)[C@H](O)[C@@H]3O)/C(C)=C/C(C)=C/C[C@@H]([C@@H](C)O)OC2=O)O[C@@H]1C` [Compound 11a, Fidaxomicin-Ciprofloxacin Hybrid], the minimum inhibitory concentration (MIC) is > 64 µg/mL and > 44.8 µM against Staphylococcus aureus; 16 µg/mL to 64 µg/mL and 11.2 µM to 44.8 µM in series [1].
In turn, `CCc1c(Cl)c(O)c(Cl)c(O)c1C(=O)O[C@H]1[C@H](O)[C@H](OC)[C@H](OCC2=CC=CC[C@H](O)C(C)=C[C@H](CC)[C@@H](O[C@@H]3OC(C)(C)[C@@H](OC(=O)C(C)C)[C@H](O)[C@@H]3O)C(C)=CC(C)=CC[C@@H]([C@@H](C)O)OC2=O)O[C@@H]1C` [Fidaxomicin, 3-(((6-Deoxy-4-O-(3,5-dichloro-2-ethyl-4,6-dihydroxybenzoyl)-2-O-methyl-β-D-mannopyranosyl)oxy)-methyl)-12(R)-[(6-deoxy-5-C-methyl-4-O-(2-methyl-1-oxopropyl)-β-D-lyxo-hexopyranosyl)oxy]-11(S)-ethyl-8(S)-hydroxy-18(S)-(1(R)-hydroxyethyl)-9,13,15-trimethyloxacyclooctadeca-3,5,9,13,15-pentaene-2-one, reference compound] showed a solubility at 5 h in series [2] (pH 7, aqueous buffer) of 84 µg/mL (≈ 79.4 µM). In series [2] (setting [3]), the “weight-% of isomer (transacylated regioisomer)” value was 9 weight-%. Besides, the MIC in the series on Staphylococcus aureus is 8 µg/mL to 16 µg/mL and 7.6 µM to 15.1 µM; against Bacillus subtilis it was 8 µg/mL to 16 µg/mL and 7.6 µM to 15.1 µM; in series [1] it was 4 µg/mL and 3.8 µM.

Source of the values: patent EP3508492A1, “TIACUMICIN DERIVATIVES AND THEIR USE AS ANTIBIOTICS” (priority 2018, dated 2019).
